Like-named read-outs stand apart in the source and are kept apart here.
How the values were obtained:
PDE4D2 = PDE4D2 (Homo sapiens (Human), UniProt Q08499); test: Effect of compounds on PDE4D2 activity (fluorescence polarization kit); assay type: biochemical
Procedure: FP was usually represented by mP value.
[formula] • I∥ (S520): fluorescence intensity in parallel direction • I⊥ (P520): fluorescence intensity in perpendicular direction • G: G factor=1
[formula] • mP(sample): mP of the test compound in a reaction well • mP(negative control): mP in the negative control well • mP(positive control): mP in the positive control well
According to the calculated inhibition rate at each concentration, the IC50 value of each compound was calculated by GraphPad Prism 8 software.

[1] = system: human peripheral blood mononuclear cells (TNF-α release); test: Inhibition of LPS-induced TNF-α release from human peripheral blood mononuclear cells in vitro; assay type: cell-based; settings: 4 h; for Emax: read-out: Max inhibition (%)
Procedure: 5. Detection of Inhibitory Activity of Compounds on the Release of Tumor Necrosis Factor-α (TNF-α) from Human Peripheral Blood Mononuclear Cells Induced by Lipopolysaccharide (LPS) In Vitro
The concentration of hPBMC cells was adjusted to 0.25×10^6 cells/mL with RPMI1640 medium and inoculated into a 96-well plate in an amount of 50000 cells per well. […] Incubation was carried out for 4 h in an incubator at 37° C. and 5% CO2. The cell supernatant was collected, and the content of TNF-α in the supernatant sample was detected by human TNF-α Elisa quantitative test kit (Sino Biological, Cat #KIT10602). The IC50 value was calculated using GraphPad Prism software.

PDE4B2 = PDE4B2 (Homo sapiens (Human), UniProt Q07343); test: Effect of compounds on PDE4B2 activity (fluorescence polarization kit)
Sequence of PDE4B2 (Q07343 other isoform, or with tags, fused parts or gaps): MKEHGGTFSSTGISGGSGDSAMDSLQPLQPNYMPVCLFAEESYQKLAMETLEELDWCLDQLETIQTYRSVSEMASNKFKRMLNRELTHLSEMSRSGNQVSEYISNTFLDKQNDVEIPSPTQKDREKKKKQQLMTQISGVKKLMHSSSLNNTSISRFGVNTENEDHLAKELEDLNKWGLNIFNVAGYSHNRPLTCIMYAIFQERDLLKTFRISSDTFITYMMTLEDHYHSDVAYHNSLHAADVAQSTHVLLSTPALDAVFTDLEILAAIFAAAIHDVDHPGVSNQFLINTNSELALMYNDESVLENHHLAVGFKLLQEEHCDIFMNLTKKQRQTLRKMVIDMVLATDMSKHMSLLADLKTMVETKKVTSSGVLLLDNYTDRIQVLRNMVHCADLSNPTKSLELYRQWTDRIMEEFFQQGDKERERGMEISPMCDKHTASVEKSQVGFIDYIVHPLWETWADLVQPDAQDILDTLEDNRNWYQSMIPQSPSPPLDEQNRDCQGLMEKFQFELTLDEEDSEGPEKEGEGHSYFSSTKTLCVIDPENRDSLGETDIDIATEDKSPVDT
Excerpt: [formula] • I∥ (S535): fluorescence intensity in parallel direction • I⊥ (P535): fluorescence intensity in perpendicular direction • G: G factor=1

[2] = Homo sapiens, PBMC, read-out: Re IC50
[3] = Homo sapiens, PBMC, hPBMC, 100 ng/mL LPS
[4] = relative IC50, hPBMC, 100 ng/mL LPS, read-out: Re IC50
[5] = Homo sapiens, PBMC, read-out: Re IC50 (nM)

Sequence of PDE4D2 (Q08499 303-809, change not shown): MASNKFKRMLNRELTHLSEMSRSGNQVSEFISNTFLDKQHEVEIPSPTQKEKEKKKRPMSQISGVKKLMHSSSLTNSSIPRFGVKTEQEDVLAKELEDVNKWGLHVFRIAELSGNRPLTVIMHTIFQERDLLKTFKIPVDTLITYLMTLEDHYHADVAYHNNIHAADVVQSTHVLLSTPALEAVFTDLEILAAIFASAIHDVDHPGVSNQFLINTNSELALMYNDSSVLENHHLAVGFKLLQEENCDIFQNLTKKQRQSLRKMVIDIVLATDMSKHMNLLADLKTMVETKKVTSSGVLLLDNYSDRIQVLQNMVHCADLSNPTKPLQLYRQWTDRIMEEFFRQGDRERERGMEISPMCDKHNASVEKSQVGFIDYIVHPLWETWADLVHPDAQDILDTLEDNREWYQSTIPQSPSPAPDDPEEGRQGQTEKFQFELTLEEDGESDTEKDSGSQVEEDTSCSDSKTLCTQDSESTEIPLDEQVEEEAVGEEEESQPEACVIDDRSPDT

| Structure (SMILES) | IC50 (PDE4D2) [nM] | IC50 [1, 2] [nM] | Emax [1, 3] [%] | IC50 (PDE4B2) [nM] | Max inhibition (%) ([1]; hPBMC, 100 ng/mL LPS) | IC50 [1, 4] [nM] | IC50 (PDE4B2; read-out: PDE4B2 IC50) [nM] | Emax ([1]; Homo sapiens, PBMC) [%] | IC50 [1, 5] [nM] |
| --- | --- | --- | --- | --- | --- | --- | --- | --- | --- |
| C#Cc1cnc(C2=CCN(c3nc4c(c(NC5(COC(N)=O)CCC5)n3)[S@+]([O-])CC4)CC2)nc1 [Compound 35] | < 10 | < 10 | 85.1 | < 10 |  |  |  |  |  |
| C#Cc1cnc(C2=CCN(c3nc4c(c(Nc5cccc(F)c5)n3)[S@+]([O-])CC4)CC2)nc1 [Compound 36-1] | < 10 |  |  |  | 73.52 | < 10 | < 10 |  |  |
| C#Cc1cnc(C2=CCN(c3nc4c(c(NC5(CN/C(C)=N/C#N)CCC5)n3)[S@+]([O-])CC4)CC2)nc1 [Compound 39] | < 10 | < 10 | 71.1 | < 10 |  |  |  |  |  |
| C#Cc1ccc(N2CCN(c3nc4c(c(NC5(CO)CCC5)n3)[S+]([O-])CCC4)CC2)cc1 (stereo not drawn) [Compound 41] | 10 to 50 |  |  | < 10 |  |  |  | 69.8 | 10 to 50 |
| NC(=O)OCC1(Nc2nc(N3C[C@H]4CC(c5ccc(Cl)cc5)=C[C@H]4C3)nc3c2[S@+]([O-])CC3)CCC1 [Compound 44] | 10 to 50 |  |  |  | 77.27 | 10 to 50 | < 10 |  |  |
| NC(=O)OCC1(Nc2nc(N3CC=C(c4ncc(Cl)cn4)CC3)nc3c2[S@+]([O-])CC3)CCC1 [Compound 48] | < 10 | 10 to 50 | 73.9 | < 10 |  |  |  |  |  |
| NC(=O)OCC1(Nc2nc(N3CC=C(c4nc5ccccc5o4)CC3)nc3c2[S@+]([O-])CC3)CCC1 [Compound 49] | < 10 |  |  |  | 73.46 | < 10 | < 10 |  |  |
| Cc1coc(C2=CCN(c3nc4c(c(NC5(COC(N)=O)CCC5)n3)[S@+]([O-])CC4)CC2)n1 [Compound 50] | < 10 | < 10 | 72.1 | < 10 |  |  |  |  |  |
| NC(=O)OCC1(Nc2nc(N3CC=C(c4ncc(Cl)cn4)CC3)nc3c2[S@+]([O-])CC3)CCCC1 [Compound 52] | < 10 | 10 to 50 |  | < 10 |  |  |  |  |  |
| NC(=O)OCC1(Nc2nc(N3CC=C(c4nc5ccccc5s4)CC3)nc3c2[S@+]([O-])CC3)CCC1 [Compound 56] | < 10 | < 10 |  | < 10 |  |  |  |  |  |
| C#Cc1cnc(C2=CCN(c3nc4c(c(NC5(COC(F)F)CCC5)n3)[S+]([O-])CC4)CC2)nc1 (stereo not drawn) [Compound 63] | < 10 | 10 to 50 | 72.7 | < 10 |  |  |  |  |  |
| C#Cc1cnc(C2=CCN(c3nc4c(c(NC5(COC)CCC5)n3)[S@+]([O-])CC4)CC2)nc1 [Compound 64] | < 10 | 10 to 50 | 79.9 | < 10 |  |  |  |  |  |
| C#Cc1cnc(C2=CCN(c3nc4c(c(NC5(C(C)O)CCC5)n3)[S@+]([O-])CC4)CC2)nc1 (stereo partly drawn) [Compound 66] | < 10 |  |  | < 10 |  |  |  | 67.1 | 10 to 50 |
| C#Cc1ccc(C2=CCN(c3nc4c(c(NC5(CNC(=O)OC)CCC5)n3)[S@+]([O-])CC4)CC2)nc1 [Compound 69] | < 10 | < 10 | 70.9 | < 10 |  |  |  |  |  |
| COC(=O)NCC1(Nc2nc(N3CC=C(c4ncc(Cl)cn4)CC3)nc3c2[S@+]([O-])CC3)CCC1 [Compound 70] | < 10 | < 10 | 55.4 | < 10 |  |  |  |  |  |
| [O-][S+]1CCc2nc(N3CCN4c5ccccc5OC[C@H]4C3)nc(NC3(CO)COC3)c21 (stereo partly drawn) [Compound 72-3] | 10 to 50 |  |  |  | 65.66 | < 10 | < 10 |  |  |
| [O-][S+]1CCc2nc(N3CCN4c5ccccc5OC[C@@H]4C3)nc(NC3(CO)COC3)c21 (stereo partly drawn) [Compound 72-4] | < 10 |  |  |  | 62.45 | < 10 | < 10 |  |  |
| COC(=O)NCC1(Nc2nc(N3C[C@@H]4CC(c5ncc(Cl)cn5)=C[C@@H]4C3)nc3c2[S@+]([O-])CC3)CCC1 [Compound 73-1] | < 10 | < 10 | 67.5 | < 10 |  |  |  |  |  |

| Structure (SMILES) | IC50 (PDE4D2) [nM] | IC50 [1, 2] [nM] | Emax [1, 3] [%] | IC50 (PDE4B2) [nM] | Max inhibition (%) ([1]; hPBMC, 100 ng/mL LPS) | IC50 [1, 4] [nM] | IC50 (PDE4B2; read-out: PDE4B2 IC50) [nM] | Emax ([1]; Homo sapiens, PBMC) [%] | IC50 [1, 5] [nM] |
| --- | --- | --- | --- | --- | --- | --- | --- | --- | --- |
| COC(=O)NCC1(Nc2nc(N3C[C@H]4CC(c5ncc(Cl)cn5)=C[C@H]4C3)nc3c2[S@+]([O-])CC3)CCC1 [Compound 73-2] | 10 to 50 | < 10 | 67.9 | < 10 |  |  |  |  |  |
| [O-][S@+]1CCc2nc(N3CC4CN(c5ccc6c(c5)CC6)CC4C3)nc(Nc3cccc(F)c3)c21 (stereo partly drawn) [Compound 76-1] | 10 to 50 |  |  |  | 74.65 | 10 to 50 | < 10 |  |  |
| NCC1(Nc2nc(N3CC=C(c4nc5ccccc5s4)CC3)nc3c2[S@+]([O-])CC3)CCC1 [Compound 78] | 10 to 50 | 10 to 50 | 77.4 | 10 to 50 |  |  |  |  |  |
| COC(=O)NCC1(Nc2nc(N3CC=C(c4nc5ccccc5s4)CC3)nc3c2[S@+]([O-])CC3)CCC1 [Compound 79] | < 10 | 10 to 50 | 65.5 | < 10 |  |  |  |  |  |
| [O-][S@+]1CCc2nc(N3CC=C(c4ncc(Cl)cn4)CC3)nc(Nc3ccnc(F)c3)c21 [Compound 85-1] | < 10 |  |  |  | 71.38 | < 10 | < 10 |  |  |
| CC(C)(COC(N)=O)Nc1nc(N2CC=C(c3ncc4occc4n3)CC2)nc2c1[S@+]([O-])CC2 [Compound 136] | < 10 |  |  | < 10 |  |  |  |  |  |
| CC(C)(COC(N)=O)Nc1nc(N2CCC=C(c3ncc(C4CC4)cn3)CC2)nc2c1[S@+]([O-])CC2 [Compound 137] | 10 to 50 |  |  | 10 to 50 |  |  |  |  |  |
| CN(C)c1cnc(C2=CCN(c3nc4c(c(NC(C)(C)COC(N)=O)n3)[S@+]([O-])CC4)CC2)nc1 [Compound 138] | 10 to 50 |  |  | 10 to 50 |  |  |  |  |  |
| COC(=O)NCC(C)(C)Nc1nc(N2C[C@H]3CC(c4ncc5c(n4)CC5)=C[C@H]3C2)nc2c1[S@+]([O-])CC2 [Compound 139-2] | 10 to 50 |  |  |  |  |  | 10 to 50 |  |  |
| COC(=O)NCC(C)(C)Nc1nc(N2CCN3c4ncc(C)cc4OC[C@H]3C2)nc2c1[S@+]([O-])CC2 [Compound 141-1] | 10 to 50 |  |  |  |  |  | 10 to 50 |  |  |
| COC(=O)NCC(C)(C)Nc1nc(N2CCN3c4ncc(C)cc4OC[C@@H]3C2)nc2c1[S@+]([O-])CC2 [Compound 141-2] | 50 to 100 |  |  |  |  |  | 10 to 50 |  |  |
| Cc1cnc2c(c1)OC[C@@H]1CN(c3nc4c(c(NC(C)(C)COC(N)=O)n3)[S@+]([O-])CC4)CCN21 [Compound 142-1] | 10 to 50 |  |  |  |  |  | < 10 |  |  |
| Cc1cnc2c(c1)OC[C@H]1CN(c3nc4c(c(NC(C)(C)COC(N)=O)n3)[S@+]([O-])CC4)CCN21 [Compound 142-2] | 10 to 50 |  |  |  |  |  | 10 to 50 |  |  |
| CCOc1cnc2c(c1)OC[C@@H]1CN(c3nc4c(c(NC(C)(C)COC(N)=O)n3)[S+]([O-])CC4)CCN21 (stereo partly drawn) [Compound 146-1] | < 10 |  |  |  |  |  | 10 to 50 |  |  |
| CCOc1cnc2c(c1)OC[C@H]1CN(c3nc4c(c(NC(C)(C)COC(N)=O)n3)[S+]([O-])CC4)CCN21 (stereo partly drawn) [Compound 146-2] | 10 to 50 |  |  |  |  |  | 10 to 50 |  |  |
| CCOc1cnc2c(c1)OC[C@@H]1CN(c3nc4c(c(NC(C)(C)CNC(=O)OC)n3)[S@+]([O-])CC4)CCN21 [Compound 147-1] | 50 to 100 |  |  |  |  |  | 10 to 50 |  |  |
| CCOc1cnc2c(c1)OC[C@H]1CN(c3nc4c(c(NC(C)(C)CNC(=O)OC)n3)[S@+]([O-])CC4)CCN21 [Compound 147-2] | 50 to 100 |  |  |  |  |  | 10 to 50 |  |  |

Reference: US20250263426A1, “PDE4B INHIBITOR AND USE THEREOF” (Xizang Haisco Pharmaceutical Co., Ltd., priority 2022, published 2025)
